Test results as given in patent EP0432983A2 (priority 1989, dated 1991).
≈ marks a conversion by molar mass, not a printed value.

Assays:
[1] = tested on: HSV-1 (herpes simplex virus, type 1); test: General anti-viral assay, HSV-1 in CV-1 cells (plaque reduction); assay type: cell-based; details: Human alphaherpesvirus 1, CV-1, read-out: IC50 µg/ml approx
[2] = tested on: MCF-7 (human breast carcinoma); test: General anti-tumour assay, MCF-7; assay type: cell-based
Method: (§1) With compounds AH-3, AH-4 and AH-5, four general anti-tumour assays and two cytotoxicity assays were performed. Current screening protocols were employed using test substance diluted as above and at varying concentrations. Tests were performed against the tumour cells P-388 (mouse DBA/2 lymphoid neoplasm), A-549 (human lung carcinoma), HT-29 (human colon carcinoma) and MCF-7 (human breast carcinoma) and for the cytotoxicity assays against CV-1 (monkey kidney fibroblast) and BHK (Hamster kidney fibroblast).
(§2) Scoring is performed as follows: (-) no activity - the number of cells is equal to the control of growth, 0-40% cell inhibition (+) low activity - numbers of cells are reduced by approx 50-60% (++) good activity - numbers of cells are reduced by approx 70-90% (+++) very good activity - there is 100% cell inhibition [(+) is the approximate IC₅₀]

[3] = tested on: CV-1 (monkey kidney fibroblast); test: Cytotoxicity assay, CV-1; assay type: cell-based
Method: as §1, §2

[4] = tested on: A-549 (human lung carcinoma); test: General anti-tumour assay, A-549; assay type: cell-based
Method: as §1, §2

[5] = tested on: VSV (Vesicular Stomatitis Virus); test: microbe, parasite or virus in culture; assay type: cell-based; details: BHK, read-out: IC50 µg/ml approx
[6] = tested on: HT-29 (human colon carcinoma); test: General anti-tumour assay, HT-29; assay type: cell-based
Method: as §1, §2

[7] = tested on: BHK (Hamster kidney fibroblast); test: Cytotoxicity assay, BHK; assay type: cell-based
Method: as §1, §2

[8] = tested on: P-388 (mouse DBA/2 lymphoid neoplasm); test: General anti-tumour assay, P-388; assay type: cell-based
Method: as §1, §2

`CC(C)=CC(=O)CC(C)C1CCC(C)c2c1cc(C)c1c2OCO1` (stereo not drawn) [AH-3, Helioporin C] was tested, and the IC50 [1] was roughly 40 µg/mL (≈ 122 µM), the IC50 ([2]; Homo sapiens, MCF7, MCF-7, read-out: IC50 µg/ml approx) was roughly 5 µg/mL (≈ 15.2 µM) and the “activity (cell inhibition)” value ([2]; MCF-7, TEST CONC (µg) 0.2) was “- ((-) no activity - the number of cells is equal to the control of growth, 0-40% cell inhibition)”. The “activity (cell inhibition)” value ([2]; MCF-7, TEST CONC (µg) 0.5) was “- ((-) no activity - the number of cells is equal to the control of growth, 0-40% cell inhibition)”, the “activity (cell inhibition)” value ([2]; MCF-7, TEST CONC (µg) 1) was “- ((-) no activity - the number of cells is equal to the control of growth, 0-40% cell inhibition)” and the “activity (cell inhibition)” value ([2]; MCF-7, TEST CONC (µg) 2) was “- ((-) no activity - the number of cells is equal to the control of growth, 0-40% cell inhibition)”. The “activity (cell inhibition)” value ([2]; MCF-7, TEST CONC (µg) 5) was “+ ((+) low activity - numbers of cells are reduced by approx 50-60%)”, the “activity (cell inhibition)” value ([2]; MCF-7, TEST CONC (µg) 10) was “++ ((++) good activity - numbers of cells are reduced by approx 70-90%)” and the “activity (cell inhibition)” value ([2]; MCF-7, TEST CONC (µg) 20) was “+++ ((+++) very good activity - there is 100% cell inhibition)”. The “cytotoxicity (inhibition zone on the cell sheet)” value (BHK cells) was 0-, the “activity (cell inhibition)” value ([3]; CV-1, TEST CONC (µg) 0.2) was “- ((-) no activity - the number of cells is equal to the control of growth, 0-40% cell inhibition)” and the “activity (cell inhibition)” value ([3]; CV-1, TEST CONC (µg) 0.5) was “- ((-) no activity - the number of cells is equal to the control of growth, 0-40% cell inhibition)”. For the same compound, the “activity (cell inhibition)” value ([3]; CV-1, TEST CONC (µg) 1) was “- ((-) no activity - the number of cells is equal to the control of growth, 0-40% cell inhibition)”, the “activity (cell inhibition)” value ([3]; CV-1, TEST CONC (µg) 2) was “- ((-) no activity - the number of cells is equal to the control of growth, 0-40% cell inhibition)” and the “activity (cell inhibition)” value ([3]; CV-1, TEST CONC (µg) 5) was “- ((-) no activity - the number of cells is equal to the control of growth, 0-40% cell inhibition)”. The “activity (cell inhibition)” value ([3]; CV-1, TEST CONC (µg) 10) was “++ ((++) good activity - numbers of cells are reduced by approx 70-90%)”, the “activity (cell inhibition)” value ([3]; CV-1, TEST CONC (µg) 20) was “+++ ((+++) very good activity - there is 100% cell inhibition)” and the IC50 ([3]; Primates, CV-1, read-out: IC50 µg/ml approx) was 5 to 10 µg/mL (≈ 15.2 to 30.4 µM). The “activity (cell inhibition)” value ([4]; A-549, TEST CONC (µg) 0.2) was “- ((-) no activity - the number of cells is equal to the control of growth, 0-40% cell inhibition)”, the “activity (cell inhibition)” value ([4]; A-549, TEST CONC (µg) 0.5) was “- ((-) no activity - the number of cells is equal to the control of growth, 0-40% cell inhibition)” and the “activity (cell inhibition)” value ([4]; A-549, TEST CONC (µg) 1) was “- ((-) no activity - the number of cells is equal to the control of growth, 0-40% cell inhibition)”. The “activity (cell inhibition)” value ([4]; A-549, TEST CONC (µg) 2) was “- ((-) no activity - the number of cells is equal to the control of growth, 0-40% cell inhibition)”, the “activity (cell inhibition)” value ([4]; A-549, TEST CONC (µg) 5) was “+ ((+) low activity - numbers of cells are reduced by approx 50-60%)” and the “activity (cell inhibition)” value ([4]; A-549, TEST CONC (µg) 10) was “+++ ((+++) very good activity - there is 100% cell inhibition)”. The “activity (cell inhibition)” value ([4]; A-549, TEST CONC (µg) 20) was “+++ ((+++) very good activity - there is 100% cell inhibition)”, the IC50 ([4]; Homo sapiens, A549, A-549, read-out: IC50 µg/ml approx) was roughly 5 µg/mL (≈ 15.2 µM) and the IC50 [5] was greater than 40 µg/mL. For the same compound, the “activity (cell inhibition)” value ([6]; HT-29, TEST CONC (µg) 0.2) was “- ((-) no activity - the number of cells is equal to the control of growth, 0-40% cell inhibition)”, the “activity (cell inhibition)” value ([6]; HT-29, TEST CONC (µg) 0.5) was “- ((-) no activity - the number of cells is equal to the control of growth, 0-40% cell inhibition)” and the “activity (cell inhibition)” value ([6]; HT-29, TEST CONC (µg) 1) was “- ((-) no activity - the number of cells is equal to the control of growth, 0-40% cell inhibition)”. The “activity (cell inhibition)” value ([6]; HT-29, TEST CONC (µg) 2) was “+ ((+) low activity - numbers of cells are reduced by approx 50-60%)”, the “activity (cell inhibition)” value ([6]; HT-29, TEST CONC (µg) 5) was “++ ((++) good activity - numbers of cells are reduced by approx 70-90%)” and the “activity (cell inhibition)” value ([6]; HT-29, TEST CONC (µg) 10) was “+++ ((+++) very good activity - there is 100% cell inhibition)”. The “activity (cell inhibition)” value ([6]; HT-29, TEST CONC (µg) 20) was “+++ ((+++) very good activity - there is 100% cell inhibition)”, the IC50 ([6]; Homo sapiens, HT-29, read-out: IC50 µg/ml approx) was roughly 2 µg/mL (≈ 6.09 µM) and the IC50 ([7]; Mesocricetus auratus, read-out: IC50 µg/ml approx) was roughly 1 µg/mL (≈ 3.04 µM). The “activity (cell inhibition)” value ([7]; TEST CONC (µg) 0.2) was “- ((-) no activity - the number of cells is equal to the control of growth, 0-40% cell inhibition)”, the “activity (cell inhibition)” value ([7]; TEST CONC (µg) 0.5) was “- ((-) no activity - the number of cells is equal to the control of growth, 0-40% cell inhibition)” and the “activity (cell inhibition)” value ([7]; TEST CONC (µg) 1) was “+ ((+) low activity - numbers of cells are reduced by approx 50-60%)”. For the same compound, the “activity (cell inhibition)” value ([7]; TEST CONC (µg) 2) was “+++ ((+++) very good activity - there is 100% cell inhibition)”, the “activity (cell inhibition)” value ([7]; TEST CONC (µg) 5) was “+++ ((+++) very good activity - there is 100% cell inhibition)” and the “activity (cell inhibition)” value ([7]; TEST CONC (µg) 10) was “+++ ((+++) very good activity - there is 100% cell inhibition)”. For the same compound, the “activity (cell inhibition)” value ([7]; TEST CONC (µg) 20) was “+++ ((+++) very good activity - there is 100% cell inhibition)”, the IC50 ([8]; Mus musculus, P388, P-388, read-out: IC50 µg/ml approx) was roughly 1 µg/mL (≈ 3.04 µM) and the “activity (cell inhibition)” value ([8]; P-388, TEST CONC (µg) 0.2) was “- ((-) no activity - the number of cells is equal to the control of growth, 0-40% cell inhibition)”. For the same compound, the “activity (cell inhibition)” value ([8]; P-388, TEST CONC (µg) 0.5) was “- ((-) no activity - the number of cells is equal to the control of growth, 0-40% cell inhibition)”, the “activity (cell inhibition)” value ([8]; P-388, TEST CONC (µg) 1) was “+ ((+) low activity - numbers of cells are reduced by approx 50-60%)” and the “activity (cell inhibition)” value ([8]; P-388, TEST CONC (µg) 2) was “++ ((++) good activity - numbers of cells are reduced by approx 70-90%)”. The “activity (cell inhibition)” value ([8]; P-388, TEST CONC (µg) 5) was “+++ ((+++) very good activity - there is 100% cell inhibition)”, the “activity (cell inhibition)” value ([8]; P-388, TEST CONC (µg) 10) was “+++ ((+++) very good activity - there is 100% cell inhibition)” and the “activity (cell inhibition)” value ([8]; P-388, TEST CONC (µg) 20) was “+++ ((+++) very good activity - there is 100% cell inhibition)”.
